Experimental data as given in patent publication EP0227941A1, “1-Phenyl-4-(1H)-pyridazinimines, their preparation and use” (BASF Aktiengesellschaft, priority 1985, dated 1987).

Experiments:
Format in all cases: biochemical, Ratten
[1] = target: T1, Synaptosomen-Aufnahme von Noradrenalin (Rattus norvegicus, UniProt Q63380); experiment: Inhibition of noradrenaline uptake in rat brain synaptosomes (hippocampus, 3H-noradrenaline)
T1 construct: Durch differentielle Zentrifugation wurden Synaptosomen erhalten; from tissue; host or cells: rat brain hippocampus synaptosomes
T1 sequence (Q63380 1-617): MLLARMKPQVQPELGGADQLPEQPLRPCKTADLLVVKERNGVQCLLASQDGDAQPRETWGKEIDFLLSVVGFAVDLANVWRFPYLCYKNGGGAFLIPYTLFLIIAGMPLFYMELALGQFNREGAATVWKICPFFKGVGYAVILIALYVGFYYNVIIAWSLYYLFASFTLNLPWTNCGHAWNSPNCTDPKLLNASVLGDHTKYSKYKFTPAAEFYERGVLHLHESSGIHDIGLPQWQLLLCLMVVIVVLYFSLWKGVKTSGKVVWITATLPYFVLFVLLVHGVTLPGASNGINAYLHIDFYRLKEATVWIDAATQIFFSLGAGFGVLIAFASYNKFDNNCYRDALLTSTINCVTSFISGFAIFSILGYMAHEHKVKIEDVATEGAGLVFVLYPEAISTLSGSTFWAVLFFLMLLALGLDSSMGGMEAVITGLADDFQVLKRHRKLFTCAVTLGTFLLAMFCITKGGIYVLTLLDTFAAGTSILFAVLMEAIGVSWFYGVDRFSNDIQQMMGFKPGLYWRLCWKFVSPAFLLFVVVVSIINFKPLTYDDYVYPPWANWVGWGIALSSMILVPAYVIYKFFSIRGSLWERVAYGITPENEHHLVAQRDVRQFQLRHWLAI
Description: (§1) Hemmung der Neurotransmitter-Aufnahme in Rattenhirn-Synaptosomen
(§2) Hippocampus und Cortex aus Rattenhirn wurden präpariert und in 0,32 M Sucrose-Lösung homogenisiert. Durch differentielle Zentrifugation wurden Synaptosomen erhalten, die in Pufferlösung suspendiert wurden. Die Synaptosomen sind in der Lage, aus dem umgebenden Medium zugefügte Neurotransmittersubstanzen (z.B. Noradrenalin oder Serotonin) aktiv aufzunehmen. Dieser Vorgang ist durch uptake-Hemmer konzentrationsabhängig antagonisierbar. Die Synaptosomen wurden mit den Testsubstanzen in verschiedenen Konzentrationen versetzt und anschließend mit ³H-Noradrenalin (Hippocampus) bzw. ³H-Serotonin (Cortex) bei 37°C inkubiert. Die Substratkonzentration betrug ca. 10 nM. Nach Stoppen der Aufnahme durch Verdünnen mit eisgekühlter Pufferlösung wurden die Synaptosomen abzentrifugiert und die ³H-Aktivität im Sediment gemessen. Der Blindwert wird durch Inkubation bei 0°C ermittelt.
(§3) Aus den verschiedenen Inhibitor-Konzentrationen gegen Kontrolle ermittelten Hemmwerten wurde durch lineare Regression nach logit-log-Transformation die mittlere Hemmkonzentration IC₅₀ berechnet.

[2] = target: T2, Synaptosomen-Aufnahme von Serotonin (Rattus norvegicus, UniProt P31652); experiment: Inhibition of serotonin uptake in rat brain synaptosomes (cortex, 3H-serotonin)
T2 construct: Durch differentielle Zentrifugation wurden Synaptosomen erhalten; from tissue; host or cells: rat brain cortex synaptosomes
T2 sequence (P31652 whole entry): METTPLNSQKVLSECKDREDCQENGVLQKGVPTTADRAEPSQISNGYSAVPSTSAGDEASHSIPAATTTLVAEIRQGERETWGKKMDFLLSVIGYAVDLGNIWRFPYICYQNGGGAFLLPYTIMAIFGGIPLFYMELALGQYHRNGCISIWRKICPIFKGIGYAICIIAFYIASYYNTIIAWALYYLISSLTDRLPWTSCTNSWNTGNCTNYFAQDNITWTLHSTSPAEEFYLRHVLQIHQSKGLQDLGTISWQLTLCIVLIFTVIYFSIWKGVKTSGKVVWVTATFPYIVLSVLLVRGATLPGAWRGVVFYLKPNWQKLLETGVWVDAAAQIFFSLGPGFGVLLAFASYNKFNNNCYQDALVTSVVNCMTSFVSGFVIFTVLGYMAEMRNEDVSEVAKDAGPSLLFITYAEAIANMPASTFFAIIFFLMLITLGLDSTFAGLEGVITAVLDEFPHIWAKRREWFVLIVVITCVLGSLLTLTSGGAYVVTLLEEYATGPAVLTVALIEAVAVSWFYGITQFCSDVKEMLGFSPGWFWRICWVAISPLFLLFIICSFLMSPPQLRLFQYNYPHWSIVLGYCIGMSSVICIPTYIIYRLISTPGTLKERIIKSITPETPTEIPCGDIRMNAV
Description: as §1, §2, §3

[3] = target: T3, Monoaminoxidase Typ A (Rattus norvegicus, UniProt P21396); experiment: Inhibition of monoamine oxidase type A in rat brain homogenate (14C-tryptamine)
T3 construct: Die Bestimmung der Monoaminoxidase erfolgte in verdünntem Rattenhirnhomogenat; from tissue; host or cells: rat brain homogenate
T3 sequence (P21396 1-526): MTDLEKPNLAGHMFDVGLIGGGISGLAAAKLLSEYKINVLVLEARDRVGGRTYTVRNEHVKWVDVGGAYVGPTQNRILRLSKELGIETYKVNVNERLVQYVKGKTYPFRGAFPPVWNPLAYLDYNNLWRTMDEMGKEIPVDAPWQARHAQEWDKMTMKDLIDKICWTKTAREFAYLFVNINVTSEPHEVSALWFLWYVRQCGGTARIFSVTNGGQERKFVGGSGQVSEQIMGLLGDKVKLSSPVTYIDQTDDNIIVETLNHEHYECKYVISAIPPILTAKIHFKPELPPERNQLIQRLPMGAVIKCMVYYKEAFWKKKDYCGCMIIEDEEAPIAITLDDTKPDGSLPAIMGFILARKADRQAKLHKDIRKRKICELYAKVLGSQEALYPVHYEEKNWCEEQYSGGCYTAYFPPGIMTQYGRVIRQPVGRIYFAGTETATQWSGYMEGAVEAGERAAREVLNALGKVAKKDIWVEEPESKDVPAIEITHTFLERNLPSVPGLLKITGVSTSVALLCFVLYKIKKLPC
Description: (§4) Hemmung der Monoaminoxidase
(§5) Die Bestimmung der Monoaminoxidase erfolgte in verdünntem Rattenhirnhomogenat dem 1. unterschiedliche Konzentrationen der zu prüfenden Testsubstanzen und 2. für die Bestimmung der Monoaminoxidase Typ A ¹⁴C-Tryptamin in einer Konzentration von 0,4 µmol, zur Bestimmung der Monoaminoxidase Typ B ¹⁴C-Phenylethylamin in einer Konzentration von 0,25 µmol zugesetzt wurde. Dieser Ansatz wurde 20 Minuten bei 37°C inkubiert. Die Reaktion wird durch 0,1 n HCl gestoppt und die Reaktionsprodukte nach Extraktion in Toluol-Szintillator (PPO + POPOP in Toluol) bestimmt. Der Blindwert wird in analogen Ansätzen mit einer Inkubationszeit von t = 0 Minuten bestimmt.
(§6) Aus den bei den verschiedenen Inhibitorkonzentrationen gegen die Kontrolle ermittelten Hemmwerten wurde durch lineare Regression nach logit-log-Transformation die mittlere Hemmkonzentration (IC₅₀) berechnet.

[4] = target: T4, Monoaminoxidase Typ B (Rattus norvegicus, UniProt P19643); experiment: Inhibition of monoamine oxidase type B in rat brain homogenate (14C-phenylethylamine)
T4 construct: Die Bestimmung der Monoaminoxidase erfolgte in verdünntem Rattenhirnhomogenat; from tissue; host or cells: rat brain homogenate
T4 sequence (P19643 1-520): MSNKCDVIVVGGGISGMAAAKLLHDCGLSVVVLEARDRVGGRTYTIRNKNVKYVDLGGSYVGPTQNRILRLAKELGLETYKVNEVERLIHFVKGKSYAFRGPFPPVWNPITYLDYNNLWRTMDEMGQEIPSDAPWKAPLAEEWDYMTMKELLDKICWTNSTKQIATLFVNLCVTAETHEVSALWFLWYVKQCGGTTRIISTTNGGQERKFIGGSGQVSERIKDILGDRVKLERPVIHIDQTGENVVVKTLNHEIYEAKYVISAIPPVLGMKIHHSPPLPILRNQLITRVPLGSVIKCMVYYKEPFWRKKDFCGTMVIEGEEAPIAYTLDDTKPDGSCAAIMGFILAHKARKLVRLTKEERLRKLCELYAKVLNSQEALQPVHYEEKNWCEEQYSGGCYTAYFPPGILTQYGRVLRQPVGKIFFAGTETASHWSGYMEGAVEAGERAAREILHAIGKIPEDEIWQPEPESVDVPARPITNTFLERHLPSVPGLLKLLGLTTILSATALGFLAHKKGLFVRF
Description: as §4, §5, §6

[5] = Quotient IC50 Referenzverbindung / IC50 Beispielverbindung

Cc1cc(-n2ccc(=N)cn2)ccc1Br [Beispiel 46, 1-(3-Methyl-4-bromphenyl)-4-(1H)-pyridazinimin-sulfat]
Hemmung der Synaptosomen-Aufnahme von Noradrenalin r.W. (relative Wirksamkeit) [1, 5]: 3.1
IC50 ([1]; rat hippocampus synaptosomes, 3H-Noradrenalin ca. 10 nM, 37°C, read-out: Hemmung der Synaptosomen-Aufnahme von Noradrenalin IC50): 10 nM
Hemmung der Synaptosomen-Aufnahme von Serotonin r.W. (relative Wirksamkeit) [2, 5]: 103
IC50 ([2]; rat cortex synaptosomes, 3H-Serotonin ca. 10 nM, 37°C, read-out: Hemmung der Synaptosomen-Aufnahme von Serotonin IC50): 7.1 nM
Hemmung der Monoaminoxidase Typ A r.W. (relative Wirksamkeit) [3, 5]: 4.2
IC50 ([3]; rat brain homogenate, 14C-Tryptamin, 20 min 37°C, read-out: Hemmung der Monoaminoxidase Typ A IC50): 1000 nM
Hemmung der Monoaminoxidase Typ B r.W. (relative Wirksamkeit) [4, 5]: 12.2
IC50 ([4]; rat brain homogenate, 14C-Phenylethylamin, 20 min 37°C, read-out: Hemmung der Monoaminoxidase Typ B IC50): 4000 nM
